Values after ≈ are worked out from the molar mass of the structure shown.
Assays:
[1] = system: C. elegans; experiment: general activity test (WMicrotracker); format: in vivo, Caenorhabditis elegans
Protocol: Two quadrants were spiked with 2 μL of an attractant (0.5% diacetyl), and two contained 2 μL water as a control.[30] After 45 min, during which the worms could move freely, the dish was moved to 4 °C to immobilize the worms, and the number of worms in each quadrant was counted. The general activity was measured with a WMicrotracker from Phylumtech. This system measured the collective movement in multiwell plates by detecting the number of interruptions of an infrared beam over time. The total number of interruptions over a 30 min period was calculated with the Wmicrotracker software. […] For all data points, the mean and standard deviation were plotted using Graphpad Prism 9.4. The ordinary differential equations and parameters fitted in Matlab were also entered in Graphpad Prism to simulate the internal concentrations over time.

[2] = system: C. elegans; experiment: chemotaxis assay (diacetyl attractant); format: in vivo, Caenorhabditis elegans
Protocol: Two quadrants were spiked with 2 μL of an attractant (0.5% diacetyl), and two contained 2 μL water as a control.[30] After 45 min, during which the worms could move freely, the dish was moved to 4 °C to immobilize the worms, and the number of worms in each quadrant was counted. For all data points, the mean and standard deviation were plotted using Graphpad Prism 9.4. The ordinary differential equations and parameters fitted in Matlab were also entered in Graphpad Prism to simulate the internal concentrations over time.

[3] = toxicokinetics experiment I: elimination after 1 h exposure; format: in vivo, Caenorhabditis elegans; conditions: whole organism (worm homogenate)
Protocol: (§1) In between cycles, the samples were kept on ice. […] Samples were stored at −20 °C until further analysis.
(§2) All parameters and units are summarized in SI A3.

[4] = system: C. elegans; experiment: as above; format: in vivo, Caenorhabditis elegans; conditions: after 1 h exposure; no E. coli
Protocol: as §1, §2

[5] = toxicokinetics experiment III: effect of E. coli on uptake; format: in vivo, Caenorhabditis elegans; conditions: 10 mg/L, exp III, 10 mg/L fluoxetine, 10 h, read-out: k2NF elimination rate constant of norfluoxetine (converted)
Protocol: as §1, §2

[6] = system: C. elegans; experiment: as above; format: in vivo, Caenorhabditis elegans; conditions: Figure 4B-D (experiments III and IV)
Protocol: as §1, §2

[7] = toxicokinetics experiment IV: long-term exposure of L4 and adult worms; conditions: whole organism (worm homogenate), iv, 20 mg/L, k2NF elimination rate constant of norfluoxetine, exp IV, with E. coli, 20 mg/L fluoxetine, 48 h
Protocol: (§3) Three replicates of 1500 pooled C. elegans were used for each time point for each concentration. For experiments with E. coli, the OD600 was kept constant at 0.4.
(§4) C. elegans containing pellets were resuspended in 500 μL of methanol, and 0.6 g of […] ceramic beads (1.4 mm) were added to the vial. The samples were homogenized three times for 20 s using a Minilys homogenizer (Bertin Technologies) at middle speed. In between cycles, the samples were kept on ice. […] The supernatant was transferred to a glass tube, the pellet (including the ceramic beads) was resuspended in 500 μL of methanol, and the homogenization, sonication, and centrifugation cycle was repeated twice more to result in a three-step extraction. The total combined supernatant was concentrated to dryness under a gentle nitrogen stream and redissolved in 500 μL of methanol to a final concentration of the IS of 1 μM. Samples were stored at −20 °C until further analysis.
(§5) A one-compartment model was selected since chemical concentrations could only be measured for the whole organism. […] All parameters and units are summarized in SI A3.
(§6) The kinetic bioconcentration factor[33] was calculated with eq 3, and the ke and kt were only included when applicable to the respective experiment [drawing 4] 3
(§7) Model fitting was performed by adding the ordinary differential equations to the BYOM modeling package version 6.3 (http://www.debtox.info/byom.html) in Matlab R2022b.[34] […] Optimization was performed with the Melder–Mead Simplex Search method, minimizing the minus log-likelihood. […] Model script deviations from the BYOM model can be found in SI A9.

[8] = system: C. elegans; experiment: as above; conditions: 20 mg/L fluoxetine
Protocol: as §3, §4, §5, §6, §7

[9] = system: C. elegans; experiment: norfluoxetine uptake and coexposure with fluoxetine (SI A5); format: in vivo, Caenorhabditis elegans; conditions: same exposure concentration; SI A5, Figure S9
Protocol: Alternatively, there could be a concentration-dependent increase in metabolism over time resulting from enzyme induction. This was modeled with an extra metabolism rate constant ke that was included after 10 h (eq 1a and Figure 4C,D).

[10] = system: C. elegans; experiment: calculated excretion rate of norfluoxetine from exposure medium concentrations (experiments III and IV, SI A6); format: in vivo, Caenorhabditis elegans
Description: Norfluoxetine was also detected in the exposure medium for experiments III and IV and increased over time, indicating the elimination of norfluoxetine. […] However, this does allow for a calculation of the excretion rate of norfluoxetine, as shown in SI A6. […] This could be explained by the saturation of binding sites for norfluoxetine at these higher concentrations, but this still requires further investigation.

[11] = system: E. coli OP50; experiment: uptake and metabolism of fluoxetine in E. coli OP50 and medium; set-up: species or system Escherichia coli; conditions: 10 mg/L fluoxetine, E. coli OD600 1.0
[12] = at 10 mg/L, p < 0.01 Bonferroni post hoc

SMILES: NCCC(Oc1ccc(C(F)(F)F)cc1)c1ccccc1 (stereo not drawn) [norfluoxetine]
- activity compared to fluoxetine [1, 12]: significantly lower
- EC50 ([1]; nominal concentrations, S medium with E. coli OD600 0.4, 24 h exposure, read-out: EC50 for the effect on activity (+95% confidence intervals)): 10.1 µg/mL (≈ 34.2 µM)
- chemotaxis index compared to fluoxetine [2, 12]: significantly lower
- EC50 ([2]; nominal concentrations, 72 h exposure from L1, S medium with E. coli OD600 0.4, read-out: EC50 for chemotaxis (+95% confidence intervals)): 14.2 µg/mL (≈ 48.2 µM)
- k el ([3]; 1 h exposure (fluoxetine 0.5, 5, 20 mg/L; norfluoxetine 20 mg/L), then clean medium, no E. coli, read-out: k2sum elimination rate constant (+95% CI) (converted)): 0.000375 s⁻¹
- k el ([3]; 1 h exposure, then clean medium, slow phase after 1 h, no E. coli, read-out: k2slow elimination rate constant (+95% CI) (converted)): 2.36e-05 s⁻¹
- k el ([3]; calculated from k2sum and k2slow, read-out: k2fast elimination rate constant (converted)): 0.000351 s⁻¹
- elimination over time after transfer to clean medium [4]: still present in small amounts after 24 h
- k el ([5]; whole organism (homogenate of pooled worms), no E. coli): 2.78e-08 s⁻¹
- k el ([5]; whole organism (worm homogenate), with E. coli, k1, k2FLX, k2NF, kt constrained (eq 1b)): 2.78e-08 s⁻¹
- k el ([5]; whole organism (worm homogenate), with E. coli, no constraint): 3.33e-05 s⁻¹
- elimination rate (k2NF) [6]: around 0.12 /h
- transformation rate kt (norfluoxetine formation) [6]: around 0.06 1/h
- k el [7]: 3.06e-05 s⁻¹
- norfluoxetine internal concentration relative to fluoxetine at steady state ([8]; Figure 4D): around half of the fluoxetine concentrations
- norfluoxetine internal concentration at steady state ([8]; steady state after 10 h): approximately 80 mg/kgnem
- internal concentrations of norfluoxetine compared to fluoxetine [9]: around 70%
- calculated excretion rate of norfluoxetine ([10]; 20 mg/L of fluoxetine exposure): around 0.5 /h
- calculated excretion rate of norfluoxetine, increased value ([10]; 20 mg/L of fluoxetine exposure, value it increased to): 0.83
- calculated excretion rate of norfluoxetine ([10]; 0.5 and 10 mg/L of fluoxetine): around 0.1 /h
- norfluoxetine concentrations in medium and bacteria exposed to fluoxetine [11]: negligible
